Test results reported in US20110224204A1, “DI-SUBSTITUTED PHENYL COMPOUNDS” (priority 2008, published 2011).
pIC50: −log10 of the molar value.

Molecular target: Human PDE10A1 (Homo sapiens, UniProt Q9Y233)
Assay: hPDE10A1 Enzyme Inhibition
Format: biochemical
Settings: [3H]-cAMP substrate; read-out: hPDE10A1 IC50 Band
Description: hPDE10A1 Enzyme Activity: 50 μl samples of serially diluted Human PDE10A1 enzyme were incubated with 50 μl of [^3H]-cAMP for 20 minutes (at 37° C.). Reactions were carried out in Greiner 96 deep well 1 ml master-block. The enzyme was diluted in 20 mM Tris HCl pH7.4 and [^3H]-cAMP was diluted in 10 mM MgCl2, 40 mM Tris.HCl pH 7.4. The reaction was terminated by denaturing the PDE enzyme (at 70° C.) after which [^3H]-5′-AMP was converted to [^3H]-adenosine by adding 25 μl snake venom nucleotidase and incubating for 10 minutes (at 37° C.). Adenosine, being neutral, was separated from charged cAMP or AMP by the addition of 200 μl Dowex resin. Samples were shaken for 20 minutes then centrifuged for 3 minutes at 2,500 r.p.m. 50 μl of supernatant was removed and added to 200 μl of MicroScint-20 in white plates (Greiner 96-well Optiplate) and shaken for 30 minutes before reading on Perkin Elmer TopCount Scintillation Counter.
hPDE10A1 Enzyme Inhibition: To check inhibition profile 11 μl of serially diluted inhibitor was added to 50 μl of [^3H]-cAMP and 50 ul of diluted Human PDE10A1 and assay was carried out as in the enzyme activity assay. Data was analysed using Prism software (GraphPad Inc).

Human PDE10A1, sequence (Q9Y233 1-779 isoform Q9Y233-1): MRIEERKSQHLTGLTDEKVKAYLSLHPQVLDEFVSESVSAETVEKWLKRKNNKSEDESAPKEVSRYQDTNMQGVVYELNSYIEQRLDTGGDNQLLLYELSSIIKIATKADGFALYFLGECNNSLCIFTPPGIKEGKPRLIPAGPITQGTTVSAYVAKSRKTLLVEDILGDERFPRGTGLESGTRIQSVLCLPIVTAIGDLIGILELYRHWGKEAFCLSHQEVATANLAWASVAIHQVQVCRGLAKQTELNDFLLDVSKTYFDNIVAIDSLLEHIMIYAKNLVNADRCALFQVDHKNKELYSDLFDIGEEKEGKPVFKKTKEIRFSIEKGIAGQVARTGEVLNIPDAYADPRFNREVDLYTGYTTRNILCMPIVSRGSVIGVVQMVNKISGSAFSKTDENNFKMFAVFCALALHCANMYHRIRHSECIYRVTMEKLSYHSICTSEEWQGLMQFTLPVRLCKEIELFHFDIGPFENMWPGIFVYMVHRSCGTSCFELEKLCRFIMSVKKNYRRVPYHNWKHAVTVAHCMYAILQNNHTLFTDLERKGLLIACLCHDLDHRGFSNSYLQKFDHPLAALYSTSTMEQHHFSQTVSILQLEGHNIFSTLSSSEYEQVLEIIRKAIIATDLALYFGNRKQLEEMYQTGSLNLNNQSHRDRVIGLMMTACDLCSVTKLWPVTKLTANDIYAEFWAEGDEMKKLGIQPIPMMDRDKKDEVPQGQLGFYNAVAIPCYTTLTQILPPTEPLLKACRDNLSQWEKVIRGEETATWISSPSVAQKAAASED

Structure (SMILES) | pIC50
Clc1ccc(-c2ccc(OCc3ccc4ccccc4n3)cc2)c(-c2ccncc2)c1 [Example 1876, 2-((4′-Chloro-2′-(pyridin-4-yl)biphenyl-4-yloxy)methyl)quinoline] | < 7.30
c1ccc(C2CCCCC2)c(-c2ccc(OCc3ccc4ccccc4n3)cc2)c1 [Example 1877, 2-((2′-cyclohexylbiphenyl-4-yloxy)methyl)quinoline] | < 7.30
CCc1ccc(COc2ccc(-c3ccccc3-c3ccncc3)cc2)nc1 [Example 1878, 5-ethyl-2-((2′-(pyridin-4-yl)biphenyl-4-yloxy)methyl)pyridine] | < 7.30
CC(C)Oc1ccccc1-c1ccc(OCc2ccc3ccccc3n2)cc1 [Example 1879, 2-((2′-isopropoxybiphenyl-4-yloxy)methyl)quinoline] | < 7.30
Cc1cc(-c2ccncc2)c(-c2ccc(OCc3ccc4ccccc4n3)cc2)cc1C [Example 1880, 2-((4′,5′-dimethyl-2′-(pyridin-4-yl)biphenyl-4-yloxy)methyl)quinoline] | < 7.30
Nc1cccc(-c2ccncc2)c1-c1ccc(OCc2ccc3ccccc3n2)cc1 [Example 1881, 6-Pyridin-4-yl-4′-(quinolin-2-ylmethoxy)-biphenyl-2-ylamine] | < 7.30
Cc1cccnc1COc1ccc(-c2ccccc2-c2ccncc2)cc1 [Example 1882, 3-methyl-2-((2′-(pyridin-4-yl)biphenyl-4-yloxy)methyl)pyridine] | < 7.30
COc1ccccc1-c1ccc(OCc2ccc3ccccc3n2)cc1 [Example 1883, 2-((2′-methoxybiphenyl-4-yloxy)methyl)quinoline] | < 7.30
Cc1cccc(COc2ccc(-c3ccccc3-c3ccncc3)cc2)n1 [Example 1884, 2-methyl-6-((2′-(pyridin-4-yl)biphenyl-4-yloxy)methyl)pyridine] | < 7.30
N#Cc1ccc(-c2ccc(OCc3ccc4ccccc4n3)cc2)c(-c2ccncc2)c1 [Example 1885, 2-(Pyridin-4-yl)-4′-(quinolin-2-ylmethoxy)biphenyl-4-carbonitrile] | < 7.30
Cc1cccc(-c2ccc(OCc3ccc4ccccc4n3)cc2)c1-c1ccncc1 [Example 1886, 2-(3′-Methyl-2′-pyridin-4-yl-biphenyl-4-yloxymethyl)-quinoline] | < 7.30
Cc1cnc(COc2ccc(-c3ccccc3-c3ccncc3)cc2)c(C)c1 [Example 1887, 3,5-dimethyl-2-((2′-(pyridin-4-yl)biphenyl-4-yloxy)methyl)pyridine] | ≥ 7.30
Fc1cccc(-c2ccc(OCc3ccc4ccccc4n3)cc2)c1-c1ccncc1 [Example 1946, 2-(3′-Fluoro-2′-pyridin-4-ylbiphenyl-4-yloxymethyl)-quinoline] | < 7.30
Cc1ccnc(COc2ccc(-c3ccccc3-c3ccncc3)cc2)c1 [Example 1947, 4-methyl-2-((2′-(pyridin-4-yl)biphenyl-4-yloxy)methyl)pyridine] | < 7.30

Tested on: not given
Assay: not given
Settings: not given

Structure (SMILES) | melting point [°C]
N#Cc1ccc(-c2ccc(OCc3ccc4ccccc4n3)cc2)c(-c2ccncc2)c1 [Example 1885, 2-(Pyridin-4-yl)-4′-(quinolin-2-ylmethoxy)biphenyl-4-carbonitrile] | 190 to 193

Tested on: not given
Assay: not given
Settings: rats; cited from earlier work

Structure (SMILES) | apomorphine induced stereotypies | haloperidol induced catalepsy | rat brain dopamine levels
COc1ccc(Cc2nccc3cc(OC)c(OC)cc23)cc1OC [papaverine] | reduces | increases | reduces
